# Experimental data taken from patent US7875618B2, “Substituted imidazo[1,5-a]quinoxalines useful as inhibitors of phosphodiesterase 10 for the treatment of neurological and other disorders” (Wyeth, priority 2007, dated 2011).
# Key:
# PDE10 from pig striatum = PDE10 from pig striatum (Sus scrofa, UniProt A0A287B941); test: Inhibition of PDE10 from pig striatum ([3H]-cAMP SPA, Methods A and B); assay type: biochemical; details: for IC50: PDE10 pig
# Procedure: Striatum from male Wistar rats (180-200 g), male hybrid pigs (150 kg) and male guinea pigs (CRL (HA), 500 g) respectively were collected and frozen at −70° C. At the day of preparation 0.5 g striatum was homogenised in 10 ml 50 mM Tris/Mg-buffer at 4° C. and centrifuged for one hour at 100000 g. The supernatant is called the cytosolic fraction and was removed and stored on ice. The pellet was resuspended in the same buffer, but containing 1% Triton and incubated for 45 min at 4° C. Both fractions were independently applied onto a 5 ml Hi Trap™ QHP column at the Äkta-FPLC. After washing the columns the bound PDE protein was eluted with an increasing sodium chloride gradient (0 mM-500 mM sodium chloride) in 50 mM Tris/Mg-buffer at 4° C. for the cytosolic fraction and in the presence of 1% Triton for the membrane fraction. […] The fractions with PDE10-activity were pooled and frozen in aliquots until use at −20° C. PDE10 activity was determined in a one step procedure in microtiter plates. […] Nonspecific activity was tested without the enzyme. The reaction was initiated by addition of the substrate solution and was carried out at 37° C. for 30 minutes. Enzymatic activity was stopped by addition of 25 μl YSi-SPA-beads (Amersham-Pharmacia). One hour later the mixture was measured in a liquid scintillation counter for microtiter plates (Microbeta Trilux). To pipette the incubation mixture a robot Biomek (Fa. Beckman) is used. […] For determination of IC50 values the Hill-plot, 2-parameter-model, was used. […] Striatum from male hybrid pigs (150 kg) were collected and frozen at −70° C. At the day of preparation 0.5 g striatum was homogenised in 10 ml 50 mM Tris/Mg-buffer at 4° C. and centrifuged for one hour at 100000 g. The supernatant was removed and the pellet was resuspended in the same buffer, but containing 1% Triton and incubated for 45 min at 4° C. The membrane fraction was applied onto a 5 ml Hi Trap™ QHP column at the Äkta-FPLC. After washing the column the bound PDE protein was eluted with an increasing sodium chloride gradient (0 mM-500 mM sodium chloride) in 50 mM Tris/Mg-buffer at 4° C. in the presence of 1% Triton. […] The fractions with PDE10-activity were pooled and frozen in aliquots until use at −20° C. PDE10 activity was determined in a one step procedure in microtiterplates. […] Nonspecific activity was tested without the enzyme. The reaction was initiated by addition of the substrate solution and was carried out at 37° C. for 30 minutes. Enzymatic activity was stopped by addition of 25 μl YSi-SPA-beads (Amersham-Pharmacia). One hour later the mixture was measured in a liquid scintillation counter for microtiterplates (Microbeta Trilux). To pipette the incubation mixture a robot Biomek (Fa. Beckman) is used. […] For determination of IC50 values the Hill-plot, 2-parameter-model, was used.
# human recombinant PDE10A = biological target: T1, human recombinant PDE10A (Homo sapiens, UniProt Q9Y233); test: Inhibition of human recombinant PDE10A ([3H]-cAMP SPA, Method B); assay type: biochemical; details: read-out: PDE10 inhibition IC50 [nM] PDE10A human
# T1 construct: made in house; host or cells: SF21 insect cells (baculovirus)
# T1 sequence (Q9Y233 1-779 isoform Q9Y233-1): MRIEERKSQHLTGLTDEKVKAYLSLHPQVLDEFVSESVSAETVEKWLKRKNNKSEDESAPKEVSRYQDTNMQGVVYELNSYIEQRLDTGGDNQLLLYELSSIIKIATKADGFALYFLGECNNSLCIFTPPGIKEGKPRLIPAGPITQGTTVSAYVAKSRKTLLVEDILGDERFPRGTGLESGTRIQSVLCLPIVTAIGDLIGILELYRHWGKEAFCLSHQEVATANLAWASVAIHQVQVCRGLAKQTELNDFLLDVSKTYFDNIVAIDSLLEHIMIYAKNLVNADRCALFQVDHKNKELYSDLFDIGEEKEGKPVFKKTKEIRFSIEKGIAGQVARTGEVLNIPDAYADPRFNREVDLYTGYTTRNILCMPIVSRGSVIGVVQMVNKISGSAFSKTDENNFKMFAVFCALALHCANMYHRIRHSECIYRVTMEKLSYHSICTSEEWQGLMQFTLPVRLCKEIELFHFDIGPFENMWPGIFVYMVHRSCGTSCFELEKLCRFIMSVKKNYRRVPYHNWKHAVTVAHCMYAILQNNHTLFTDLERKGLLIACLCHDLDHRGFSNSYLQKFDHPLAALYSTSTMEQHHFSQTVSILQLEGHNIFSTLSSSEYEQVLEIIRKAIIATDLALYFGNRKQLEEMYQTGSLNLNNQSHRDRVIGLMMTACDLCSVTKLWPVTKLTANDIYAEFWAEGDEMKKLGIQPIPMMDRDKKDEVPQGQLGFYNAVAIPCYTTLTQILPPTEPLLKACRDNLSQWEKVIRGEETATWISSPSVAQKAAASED
# rats [1] = details: Kostowski et al. 1976; cited from earlier work
# rats [2] = details: Kostowski et al. 1976; cited from earlier work; remark: listed apart in the source
# rats [3] = details: Kostowski et al. 1976; cited from earlier work; remark: listed apart in the source
# PDE10 from rat striatum = biological target: T2, PDE10 from rat striatum (Rattus norvegicus, UniProt Q9QYJ6); test: Inhibition of PDE10 from rat striatum (Method A); assay type: biochemical; details: read-out: Km of substrate
# T2 construct: from tissue; host or cells: rat striatum (male Wistar)
# T2 sequence (Q9QYJ6 1-794): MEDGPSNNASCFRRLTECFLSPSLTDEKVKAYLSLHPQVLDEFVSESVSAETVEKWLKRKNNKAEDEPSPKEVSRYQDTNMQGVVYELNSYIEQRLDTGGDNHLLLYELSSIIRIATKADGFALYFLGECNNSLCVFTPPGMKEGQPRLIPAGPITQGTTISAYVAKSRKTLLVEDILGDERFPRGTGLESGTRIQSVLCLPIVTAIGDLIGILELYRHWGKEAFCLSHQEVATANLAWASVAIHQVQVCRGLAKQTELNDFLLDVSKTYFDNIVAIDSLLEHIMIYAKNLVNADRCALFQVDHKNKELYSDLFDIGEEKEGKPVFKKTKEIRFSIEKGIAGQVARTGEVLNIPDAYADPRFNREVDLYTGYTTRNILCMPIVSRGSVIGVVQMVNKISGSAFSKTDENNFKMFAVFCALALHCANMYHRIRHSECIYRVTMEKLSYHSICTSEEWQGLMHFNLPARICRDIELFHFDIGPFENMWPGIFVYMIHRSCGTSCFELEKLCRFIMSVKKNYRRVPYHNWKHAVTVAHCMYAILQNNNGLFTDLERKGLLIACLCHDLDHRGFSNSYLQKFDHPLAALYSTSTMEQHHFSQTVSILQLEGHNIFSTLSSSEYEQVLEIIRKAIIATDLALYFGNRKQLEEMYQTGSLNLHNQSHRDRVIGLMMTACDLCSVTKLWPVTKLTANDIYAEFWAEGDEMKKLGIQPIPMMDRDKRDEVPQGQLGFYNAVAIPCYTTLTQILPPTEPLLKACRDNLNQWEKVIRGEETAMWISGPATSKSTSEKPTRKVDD
# Procedure: Striatum from male Wistar rats (180-200 g), male hybrid pigs (150 kg) and male guinea pigs (CRL (HA), 500 g) respectively were collected and frozen at −70° C. At the day of preparation 0.5 g striatum was homogenised in 10 ml 50 mM Tris/Mg-buffer at 4° C. and centrifuged for one hour at 100000 g. The supernatant is called the cytosolic fraction and was removed and stored on ice. The pellet was resuspended in the same buffer, but containing 1% Triton and incubated for 45 min at 4° C. Both fractions were independently applied onto a 5 ml Hi Trap™ QHP column at the Äkta-FPLC. After washing the columns the bound PDE protein was eluted with an increasing sodium chloride gradient (0 mM-500 mM sodium chloride) in 50 mM Tris/Mg-buffer at 4° C. for the cytosolic fraction and in the presence of 1% Triton for the membrane fraction. […] The fractions with PDE10-activity were pooled and frozen in aliquots until use at −20° C. PDE10 activity was determined in a one step procedure in microtiter plates. […] Nonspecific activity was tested without the enzyme. The reaction was initiated by addition of the substrate solution and was carried out at 37° C. for 30 minutes. Enzymatic activity was stopped by addition of 25 μl YSi-SPA-beads (Amersham-Pharmacia). One hour later the mixture was measured in a liquid scintillation counter for microtiter plates (Microbeta Trilux). […]
# [4] = biological target: Phosphodiesterase (PDE) 10A (Homo sapiens, UniProt Q9Y233); details: Soderling et al. 1999; read-out: Km of substrate; cited from earlier work
# Phosphodiesterase (PDE) 10A, sequence (Q9Y233 whole entry): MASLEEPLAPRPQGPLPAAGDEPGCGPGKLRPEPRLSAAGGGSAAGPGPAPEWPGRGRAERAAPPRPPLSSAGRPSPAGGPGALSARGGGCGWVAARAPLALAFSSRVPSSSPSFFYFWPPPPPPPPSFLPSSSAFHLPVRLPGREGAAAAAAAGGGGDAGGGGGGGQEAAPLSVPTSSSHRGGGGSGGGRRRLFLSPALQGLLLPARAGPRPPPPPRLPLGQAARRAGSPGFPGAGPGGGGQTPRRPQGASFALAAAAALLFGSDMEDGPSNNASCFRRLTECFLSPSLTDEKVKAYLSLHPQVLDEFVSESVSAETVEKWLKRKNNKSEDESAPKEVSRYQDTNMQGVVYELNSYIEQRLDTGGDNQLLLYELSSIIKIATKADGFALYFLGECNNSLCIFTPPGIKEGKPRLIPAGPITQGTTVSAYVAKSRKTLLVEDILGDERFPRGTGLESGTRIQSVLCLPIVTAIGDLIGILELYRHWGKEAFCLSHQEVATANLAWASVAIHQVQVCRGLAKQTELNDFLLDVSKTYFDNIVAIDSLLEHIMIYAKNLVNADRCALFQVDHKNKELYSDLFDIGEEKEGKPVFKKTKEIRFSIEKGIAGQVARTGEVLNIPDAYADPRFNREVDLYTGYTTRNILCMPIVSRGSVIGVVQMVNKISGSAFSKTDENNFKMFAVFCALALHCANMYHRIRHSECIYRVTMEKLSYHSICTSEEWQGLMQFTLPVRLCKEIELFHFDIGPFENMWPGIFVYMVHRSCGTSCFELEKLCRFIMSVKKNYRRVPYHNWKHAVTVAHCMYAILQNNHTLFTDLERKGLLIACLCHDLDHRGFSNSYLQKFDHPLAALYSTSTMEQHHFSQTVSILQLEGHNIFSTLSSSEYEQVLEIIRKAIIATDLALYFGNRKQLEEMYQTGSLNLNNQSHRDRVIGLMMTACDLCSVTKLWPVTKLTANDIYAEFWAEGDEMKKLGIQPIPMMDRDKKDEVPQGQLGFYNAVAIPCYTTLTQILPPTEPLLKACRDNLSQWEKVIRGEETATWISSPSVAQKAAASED
IC50 (PDE10 from pig striatum),IC50 (human recombinant PDE10A),melting point,SMILES,further results
10 to 100 nM,≥ 100 nM,241 to 242 °C,"Cc1nc(C2CCCCC2)n2c1c(N)nc1ccc(OCC3CC3)cc12 [Example 40, 1-Cyclohexyl-8-cyclopropylmethoxy-3-methyl-imidazo[1,5-a]quinoxalin-4-ylamine]",–
10 to 100 nM,10 to 100 nM,110 to 112 °C,"CCCc1nc(C)c2c(C)nc3ccc(OCC4CC4)cc3n12 [Example 42, 8-Cyclopropylmethoxy-3,4-dimethyl-1-propyl-imidazo[1,5-a]quinoxaline]",–
10 to 100 nM,≥ 100 nM,154 to 157 °C,"Cc1nc(C2CCCCC2)n2c1c(C)nc1ccc(OCC3CC3)cc12 [Example 44, 1-Cyclohexyl-8-cyclopropylmethoxy-3,4-dimethyl-imidazo[1,5-a]quinoxaline]",–
≤ 10 nM,≤ 10 nM,185 to 187 °C,"CCCc1nc(C)c2c(C)nc3c(OC)cc(OC)cc3n12 [Example 45, 6,8-Dimethoxy-3,4-dimethyl-1-propyl-imidazo[1,5-a]quinoxaline]",–
≤ 10 nM,10 to 100 nM,186 to 188.5 °C,"COc1ccc2c(c1)nc(C)c1c(C)nc(-c3ccccc3Cl)n12 [Example 47, 1-(2-Chloro-phenyl)-7-methoxy-3,4-dimethyl-imidazo[1,5-a]quinoxaline]",–
≤ 10 nM,≤ 10 nM,134 to 136 °C,"CCCc1nc(C)c2c(C)nc3cc(OCc4ccc5ccccc5n4)ccc3n12 [Example 49, 3,4-Dimethyl-1-propyl-7-(quinolin-2-ylmethoxy)-imidazo(1,5-a)quinoxaline]",–
≤ 10 nM,≤ 10 nM,180 to 195 °C,"Cc1nc(-c2ccccc2Cl)n2c1c(C)nc1c(OCC3CC3)cc(OCC3CC3)cc12 [Example 50, 1-(2-Chloro-phenyl)-6,8-bis-cyclopropylmethoxy-3,4-dimethyl-imidazo[1,5-a]quinoxaline]",–
≤ 10 nM,≤ 10 nM,219 to 222 °C,"COc1cc(OC)c2nc(C)c3c(C)nc(C4CCCCC4)n3c2c1 [Example 51, 1-Cyclohexyl-6,8-dimethoxy-3,4-dimethyl-imidazo[1,5-a]quinoxaline]",–
≤ 10 nM,≤ 10 nM,168 to 169 °C,"COc1cc(OC)c2nc(C)c3c(C)nc(-c4ccccc4C)n3c2c1 [Example 52, 6,8-Dimethoxy-3,4-dimethyl-1-o-tolyl-imidazo[1,5-a]quinoxaline]",–
≤ 10 nM,≤ 10 nM,183 to 189 °C,"COc1cc(OC)c2nc(C)c3c(C)nc(-c4ccccc4Cl)n3c2c1 [Example 53, 1-(2-Chloro-phenyl)-6,8-dimethoxy-3,4-dimethyl-imidazo[1,5-a]quinoxaline]",–
10 to 100 nM,–,133 to 135 °C,"CCCc1nc(C)c2c(Cl)nc3ccc(F)cc3n12 [Intermediate B6, 4-Chloro-8-fluoro-3-methyl-1-propyl-imidazo(1,5-a)quinoxaline]",–
10 to 100 nM,–,205 to 210 °C,"Cc1nc(C2CCCCC2)n2c1c(Cl)nc1ccc(F)cc12 [Intermediate B7, 4-Chloro-1-cyclohexyl-8-fluoro-3-methyl-imidazo(1,5-a)quinoxaline]",–
≥ 100 nM,–,244 to 248 °C,"Cc1nc(C2CCCCC2)n2c1c(Cl)nc1ccc(Cl)cc12 [Intermediate B9, 4,8-Dichloro-1-cyclohexyl-3-methyl-imidazo(1,5-a)quinoxaline]",–
10 to 100 nM,–,105 to 108 °C,CCCc1nc(C)c2c(Cl)nc3ccc(N4CCCCC4)cc3n12 [Intermediate B10],–
–,–,–,COc1ccc(Cc2nccc3cc(OC)c(OC)cc23)cc1OC [Papaverine],dopamine concentration in rat brain (rats [1]): reducing; apomorphine-induced stereotypies (rats [2]): reduces; haloperidol-induced catalepsy (rats [3]): increases
–,–,–,Nc1nc2c(ncn2[C@@H]2O[C@@H]3COP(=O)(O)O[C@H]3[C@H]2O)c(=O)[nH]1 [cGMP],"Km (PDE10 from rat striatum): 1800 nM; Km [4]: 3000 nM; Km (PDE10 from pig striatum; Method A, PDE10 from pig striatum, read-out: Km of substrate): 2200 nM"
